“Also recorded” adds a separate entry of the source.
What was measured:
HIF-1a = HIF-1a expression by Western blot in HEC1a/EMP2 cells treated with kinase inhibitors in a hypoxic chamber; assay type: cell-based, human; settings: 24 hrs, 1.0% hypoxic chamber
Method: To determine if EMP2 expression altered VEGF expression and secretion, cells were placed in a hypoxic chamber for 24 hours. EMP2 expression directly correlated with VEGF protein levels (FIG. 4B) as well as with secreted protein (FIG. 4C). […] Western blot analysis was carried out by Cells were lysed in Laemmli buffer. Proteins were separated by SDS-PAGE, transferred to a nitrocellulose membrane (Amersham Biosciences), and stained with Ponceau S (Sigma-Aldrich, St. Louis, Mo.) to determine transfer efficiency. Membranes were blocked with 10% low fat milk in PBS containing 0.1% Tween 20 and probed with EMP2 antisera (1:1000), anti-VEGF (Santa Cruz Biotech), antiHIF-1a (1:800; BD Biosciences), anti-PPAR-y (Santa Cruz Biotech), anti-p-Src (Cell Signaling, Danvers). Protein bands were visualized using a horseradish peroxidase (HRP)-labeled secondary antibody (BD Biosciences) followed by chemiluminescence (ECL; Amersham Biosciences). Band intensities were quantified using the NIH program Image J as above. To account for loading variability β-actin was used to normalize each sample. At least three independent experiments were performed and, where indicated, the results were evaluated for statistical significance using a Student's t-test (unpaired, one-tail). A level of P<0.05 was considered to be statistically significant.
In some experiments, inhibitors were added to determine the contribution of specific pathways to HIF-1a expression. HEC1a/EMP2 cells were treated with 10 μM of the kinase inhibitor Ly294002 (Cell Signaling), the EGFR inhibitor Erlotinib e; 10 μM, Genentech), or the Src family tyrosine kinase inhibitor Dasatinib e; 10 μM, Bristol-Myers Squibb). Efficacy of the inhibitors was tested at the manufacturer's recommended dosage, and potential toxicity was measured using trypan-blue exclusion. Samples were harvested and probed by SDS-PAGE/Western blot analysis as above […]
Using common inhibitors of AKT, PI3-kinase, EGFR, and Src tyrosine kinases, HEC1a/EMP2 cells were treated with these agents while in a hypoxic chamber.

[1] = system: human aortic endothelial cell (HAEC); assay: Boyden chamber migration of HAEC towards cultured tumor cell supernatants; assay type: cell-based; settings: added at 10μg/ml to the cultured tumor cell supernatant
Method: FIG. 4 depicts that EMP2 regulates VEGF expression. (A) A Boyden chamber assay was used to determine human aortic endothelial cell (HAEC) response to cultured tumor cell supernatants. In some experiments, the antiVEGF antibody Avastin® which binds soluble VEGF was added at 10μg/ml to the cultured supernatant. (B) The expression of total VEGF was measured using Western blot analysis. EMP2 expression was visualized to verify modulation of EMP2 in the cell lines; β-Actin was used as the loading control. (C) Secreted VEGF was measured using an ELISA. (D) Semi-quantitative expression of VEGF mRNA was determined using RTPCR. The experiment was repeated three times with similar results, and a representative blot is shown. GAPDH expression serves as a loading control. (E) Left, To determine the mechanism for VEGF regulation, HIF-1 a and PP ARy expression was determined using Western blot analysis. β-Actin expression serves as the loading control. Right, Quantization of HIF-1a expression relative to β-Actin for three independent experiments. The data represents the mean±SEM. […] Appropriate vehicle control cells are included. Western blot analysis was used to show the expression of EMP2, HIF-1a, and β-Actin in these cells.
Human umbilical vein endothelial cells (HUVEC) from passage 2 were purchased from BD Biosciences (San Diego, Calif.) and used between passages 3 and 7 for all experiments. […]

HUVEC = settings: supernatants of HEC1a/RIBO or HEC1a/shRNA 911; 20 or 50 µg/ml
Excerpt: Migration assays. […] The experiment was repeated three times.

Compound | EMP2-induced HIF-1a expression (HIF-1a) | also measured
O=c1[nH]c2ccccc2n1C1CCN(Cc2ccc(-c3nc4cc5[nH]cnc5cc4nc3-c3ccccc3)cc2)CC1 [AKTi, Akt inhibitor VIII] | did not alter HIF-1a expression | EMP2-induced HIF-1a expression (HIF-1a; listed as AKT inhibitors): did not suppress
CC(C)(C)n1nc(-c2ccc(Cl)cc2)c2c(N)ncnc21 [PP2] | reversed | –
C#Cc1cccc(Nc2ncnc3cc(OCCOC)c(OCCOC)cc23)c1 [erlotinib, Erlotinib] | produced a similar effect; also recorded: sufficient to inhibit its expression | –
Bevacizumab | – | HAEC migration [1]: reduced HAEC migration to control levels
VEGF | – | HUVEC cell tube formation (HUVEC): sufficient to induce HUVEC cell tube formation

From patent US20150079089A1, “EMP2 REGULATES ANGIOGENESIS IN CANCER CELLS THROUGH INDUCTION OF VEGF” (THE REGENTS OF THE UNIVERSITY OF CALIFORNIA, priority 2012, published 2015)
